Measurements reported in article PMC12677843, “Multidisciplinary Preclinical Investigations on Ferrocenyl, Ruthenocenyl, and Benzyl Derivatives of Niridazole as New Drug Candidates against Schistosomiasis” (Chemmedchem, 2025).

Experiments:
[1] = test system: S. mansoni newly transformed schistosomula (NTS); assay: In vitro evaluation on newly transformed schistosomula (NTS); format: cell-based, Schistosoma mansoni
Method: 2. Experimental section for biological experiments
Stock solutions of the test compounds
Stock solution of a concentration of 10 mM in pure DMSO (Sigma-Aldrich, Switzerland) were prepared of the 12 compounds, these stock solutions were used for all in vitro evaluations from activity tests in S. mansoni to the cytotoxic determinations in HUH7 hepatocyte-derived carcinoma cells, and in SH-SY5Y neuroblastoma cells.
The solutions were thoroughly vortexed and sonicated to enable a good dissolution of the compounds and homogenous stock solutions.
2.1 In vitro evaluations in S. mansoni
In vitro evaluation on newly transformed schistosomula (NTS)
To obtain newly transformed schistosomula (NTS) the lifecycle of S. mansoni (strain originates from West Africa, Liberia) is maintained at the Swiss Tropical and Public Health Institute (Swiss TPH). As previously described, cercariae are collected from infected Biomphalaria glabrata snails and then mechanically transformed into NTS. 8 After HBSS (Gibco, Waltham MA, USA) washing to get rid of the detached tails, the NTS were kept overnight (min. 12 h, max. 24 h) in culture medium at 37 °C and 5 % CO2 to complete their transformation process, before the drug sensitivity assay was started. The drug assays were performed in the same culture medium consisting of medium M199 (Gibco, Waltham MA, USA) supplemented with 5 % v/v inactivated fetal calf serum (iFCS; Bioconcept AG, Allschwil, Switzerland), 1% antibiotics mixture developed by Mäser et al., 9 and 1 % penicillin 10,000 U/mL, and streptomycin 10 mg/mL solution (Sigma-Aldrich, Buchs, Switzerland). The assay was performed in a 96-well plate, with 30−40 NTS per well in a final volume of 250 μL. NTS incubated in culture medium containing 0.5 % DMSO but no drug served as negative controls.
Microscopic evaluation was performed after 24, 48 and 72 h of incubation of the parasites at 37 °C and 5 % CO 2. Their overall viability was scored from 0 (death) to 3 (full viability) by a phenotypic screening method based on their motility, morphology, […]
and granularity. […]

[2] = test system: SH-SY5Y neuroblastoma cells; assay: XTT mitochondrial activity/cell viability assay, SH-SY5Y; format: cell-based; details: 20 µM, 24 h, serum-free media, vs DMSO control (0.2%), mean
Method: The safety profile of niridazole and its organometallic derivatives was evaluated using two different cell lines. The XTT mitochondrial activity assay reflecting cell viability was performed in the hepatocyte‐derived carcinoma cell line HUH7 and in the human neuroblastoma cell line SH‐SY5Y at 20 µM for 24 h. The SYTOX cell viability assay was subsequently performed on the SH‐SY5Y cell line, once the cell line was identified to be more sensitive to the treatment conditions.
Figure 5 XTT assay. Results of the XTT activity/viability assay are shown in A for HUH7 and B for SHSY5Y cells. […]
Additionally, 2 wells with negative controls containing only DMSO and the culture medium were included. After an incubation period of 72 h at 37 °C and 5 % CO 2, the worms were microscopically evaluated. The drug effect was determined 24, 48 and 72 h post-exposure based on the phenotype of the adult worms, using a viability scale ranging from three referring to viable, motile worms with no change in their tegument to zero standing for the death of the worms. […]
Following 24 h of incubation, 12.5 μL of an XTT/phenazine methosulfate (PMS) (XTT Sigma Aldrich cat X4626, PMS Serva CAT: 3203) 0.02solution (1 mg/mL XTT and 7.5 μg/mL PMS) was added to each well. […] Mean ± SD was determined from three independent experiments, each performed in quintuplicate. […]

O=C1NCCN1c1ncc([N+](=O)[O-])s1 [Niridazole, niridazole]
EC50 ([1]; Schistosoma mansoni, 72 h incubation, 37 °C, 5% CO2): > 50 µM
drug effect at 50 µM on S. mansoni NTS ([1]; highest tested concentration 50 µM): not impaired
reduction of XTT signal in SH-SY5Y cells [2]: no signs of toxicity
